In patent US6613322B2, “Method for treating a subject suffering from conditions associated with an extracellular zinc sphingomyelinase” (The Trustees of Columbia University in the City of New York, priority 1997, dated 2003):

Legend:
Assay type in all cases: cell-based, human
L-SMase of HUVECs = test: Cytokine regulation of L-SMase activity in HUVEC cell homogenates; conditions: cytokine-treated endothelial cells
Method: FIGS. 23A-B. Cytokine regulation of S- and L-SMase of HUVECs. […] Conditioned media (FIG. 23A) and cell homogenates (FIG. 23B) from these cells were then assayed for SMase activity in the presence or absence of 0.1 mM ZnCl2, respectively.
Cells—Primary cultures of HUVEC were obtained from fresh umbilical cords and maintained in cell culture as previously described (31). Human coronary artery endothelial cells from a donor were purchased from Clonetics Corp. (San Diego, Calif.; cat. # CC-2585, Strain #3033). The cells were grown in endothelial basal media (EBM) (Clonetics) supplemented with 10% HI-FES; 10 μg endothelial cell growth supplement/ml (Sigma; cat. # E0760) and 50 μg gentamicin/ml. Primary cultures of bovine aortic endothelial, cells were established and subcultured as described previously (32). […]

HUVECs = test: LDH release from HUVECs; conditions: IL-1β 5 ng/ml, 18 h
Method: HUVECs were incubated for 18 h in DMEM, 0.2% BSA alone (Con) or containing human recombinant interleukin-1β (5 ng/ml) (IL1β). Conditioned media from these cells were then assayed for SMase activity (FIG. 25A) and LDH activity (FIG. 25B).
LDH Assay—LDH activity was assayed in medium and cells as reported previously (42) using a kit purchased from Sigma (catalogue #500); the assay measures the unreacted pyruvic acid using a colorometric assay.

[1] = system: mannose-phosphorylated S-SMase of HUVECs; test: Binding of HUVEC S-SMase to mannose-phosphate receptor column; conditions: conditioned medium of IL-1β-treated HUVECs; Western blot densitometry
Excerpt: We recently reported that S-SMase is secreted through a Golgi pathway that bypasses the lysosomal pathway of L-SMase. Thus, we considered three general mechanisms to explain how IL-Lβ increases the secretion of SMase: secretion of mannose-phosphorylated SMase during trafficking of the ASM precursor to lysosomes (e.g., due to saturation of the mannose-6-phosphate receptor—cf. Ref. (46)), induction of secretion of intralysosomal SMase (cf. Ref. (47)), or increased trafficking of the ASM precursor protein through the normal Golgi secretory pathway. To begin, we assessed the mannose-phosphorylation state of S-SMase from control and IL-1β-treated HUVECs by passing conditioned media from these cells over a mannose-phosphate receptor column (cf. Ref. (48)). By Western blot analysis quantified by densitometry, only 7.9% of control S-SMase and 4.9% of S-SMase from the cytokine-treated cells bound to the column and could be eluted with mannose-6-phosphate. As a control for this experiment, we have previously shown that the massive secretion of SMase by ASM-transfected CHO cells can be partly explained by secretion of mannose-phosphorylated SMase due to saturation of the mannose-6-phosphate receptor^2; when conditioned medium from these cells was passed over the receptor column, 40.3% bound and could be eluted with mannose-6-phosphate. […]

Q: How did the “L-SMase (lysosomal SMase) activity” value (L-SMase of HUVECs) turn out when IL-1β: human recombinant interleukin-1β was run?
A: decreased

Q: What about the “increase in LDH release” value (HUVECs) of the same substance?
A: 60%

Q: What about the “S-SMase bound to mannose-phosphate receptor column and eluted with mannose-6-phosphate” value [1] of the same substance?
A: 4.9%
